Data taken from ChEMBL document CHEMBL1201862, “PubChem BioAssay data set” (2004).
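Tested at 5 concentrations; 48 h exposure; 96-well plates; endpoints linearly interpolated, else capped at highest concentration. GI50 is the concentration that inhibits growth by half.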 The source made the active and inactive calls. No stated cut-off is given here; in the data, active = GI50 up to about 1.1 µM and inactive = higher.

What was measured:
Assay in all cases: inhibition of tumour cell growth, NCI panel, 48 h
[1] = system: UACC-257
[2] = system: DU-145
[3] = system: SK-MEL-2
[4] = system: T47D
[5] = system: RXF 393
[6] = system: NCI-H23
[7] = system: KM12
[8] = system: UO-31
[9] = system: UACC-62
[10] = system: EKVX
[11] = system: CCRF-CEM
[12] = system: NCI-H522
[13] = system: SW-620
[14] = system: SNB-19
[15] = system: Malme-3M
[16] = system: HCC 2998
[17] = system: MDA-MB-435
[18] = system: PC-3
[19] = system: HT-29
[20] = system: NCI/ADR-RES

| SMILES | GI50 [1] | GI50 [2] | GI50 [3] | GI50 [4] | GI50 [5] | GI50 [6] | GI50 [7] | GI50 [8] | GI50 [9] | GI50 [10] | GI50 [11] | GI50 [12] | GI50 [13] | GI50 [14] | GI50 [15] | GI50 [16] | GI50 [17] | GI50 [18] | GI50 [19] | GI50 [20] |
| --- | --- | --- | --- | --- | --- | --- | --- | --- | --- | --- | --- | --- | --- | --- | --- | --- | --- | --- | --- | --- |
| O=C1/C(=C\c2ccc([N+](=O)[O-])cc2)CS(=O)(=O)C/C1=C/c1ccc([N+](=O)[O-])cc1 | 1.81 µM (inactive) | 2.92 µM (inactive) | 1.17 µM (inactive) | 0.962 µM (active) | 0.482 µM (active) | 0.904 µM (active) | 0.327 µM (active) | 0.176 µM (active) | 0.198 µM (active) | 1.21 µM (inactive) | 0.264 µM (active) | 0.277 µM (active) | 0.262 µM (active) | 3.24 µM (inactive) | 0.41 µM (active) | 0.247 µM (active) | 0.358 µM (active) | 0.392 µM (active) | 0.357 µM (active) | 0.161 µM (active) |
| Cn1cnnc1SC(F)(F)c1nc2ccccc2o1 | > 100 µM (inactive) | > 100 µM (inactive) | > 100 µM (inactive) | > 100 µM (inactive) | > 100 µM (inactive) | > 100 µM (inactive) | > 100 µM (inactive) | > 100 µM (inactive) | > 100 µM (inactive) | – | > 100 µM (inactive) | > 100 µM (inactive) | > 100 µM (inactive) | – | > 100 µM (inactive) | > 100 µM (inactive) | > 100 µM (inactive) | > 100 µM (inactive) | > 100 µM (inactive) | > 100 µM (inactive) |
| CC(=O)NCC1(c2ccccc2)CCN(CC2COc3ccccc3O2)CC1 (stereo not drawn) [ACOXATRINE] | > 100 µM (inactive) | > 100 µM (inactive) | > 100 µM (inactive) | > 100 µM (inactive) | > 100 µM (inactive) | > 100 µM (inactive) | > 100 µM (inactive) | > 100 µM (inactive) | > 100 µM (inactive) | > 100 µM (inactive) | > 100 µM (inactive) | > 100 µM (inactive) | > 100 µM (inactive) | > 100 µM (inactive) | > 100 µM (inactive) | > 100 µM (inactive) | > 100 µM (inactive) | > 100 µM (inactive) | 39.4 µM (inactive) | > 100 µM (inactive) |
| CC1=NC(=Cc2cc(Br)cc(Br)c2)C(=O)N1n1c(-c2ccccc2)nc2ccccc2c1=O | > 100 µM (inactive) | > 100 µM (inactive) | > 100 µM (inactive) | > 100 µM (inactive) | > 100 µM (inactive) | > 100 µM (inactive) | > 100 µM (inactive) | > 100 µM (inactive) | > 100 µM (inactive) | > 100 µM (inactive) | > 100 µM (inactive) | > 100 µM (inactive) | > 100 µM (inactive) | > 100 µM (inactive) | > 100 µM (inactive) | > 100 µM (inactive) | 72.3 µM (inactive) | > 100 µM (inactive) | > 100 µM (inactive) | > 100 µM (inactive) |
| C[C@]12CC[C@H]3[C@@H](CC=C4C[C@@H](O)CC[C@@]43C)[C@@H]1CC[C@@H]2N(CCO)CCO | 52.6 µM (inactive) | 36.6 µM (inactive) | 76.2 µM (inactive) | 86.3 µM (inactive) | 36.1 µM (inactive) | > 100 µM (inactive) | 54.5 µM (inactive) | 51.8 µM (inactive) | 35.3 µM (inactive) | 19.4 µM (inactive) | 46.2 µM (inactive) | 20.4 µM (inactive) | 41.3 µM (inactive) | 68.1 µM (inactive) | 31 µM (inactive) | 27 µM (inactive) | 85.9 µM (inactive) | 50.9 µM (inactive) | 29 µM (inactive) | > 100 µM (inactive) |
| CCN(CC)Cc1nc(C2CCC([N+](=O)[O-])O2)no1 (stereo not drawn) | 19.9 µM (inactive) | 25.7 µM (inactive) | 21.7 µM (inactive) | 27.2 µM (inactive) | 31 µM (inactive) | 19.3 µM (inactive) | 26.5 µM (inactive) | > 100 µM (inactive) | 14.8 µM (inactive) | > 100 µM (inactive) | 31.9 µM (inactive) | 15.9 µM (inactive) | 19.4 µM (inactive) | 28.6 µM (inactive) | 15.9 µM (inactive) | 20.6 µM (inactive) | 18.1 µM (inactive) | 27.3 µM (inactive) | 17 µM (inactive) | 26.7 µM (inactive) |
| C(=N\NC1=NCCCN1)/c1ccc(-c2cn3cc(/C=N/NC4=NCCCN4)ccc3n2)cc1 | > 100 µM (inactive) | 26.6 µM (inactive) | > 100 µM (inactive) | > 100 µM (inactive) | 61.1 µM (inactive) | > 100 µM (inactive) | > 58.1 µM (inactive) | > 100 µM (inactive) | > 100 µM (inactive) | 45.9 µM (inactive) | > 41.9 µM (inactive) | > 100 µM (inactive) | > 100 µM (inactive) | > 100 µM (inactive) | 19 µM (inactive) | > 53.3 µM (inactive) | > 100 µM (inactive) | > 40.1 µM (inactive) | 29.3 µM (inactive) | > 100 µM (inactive) |
